US20070129367A1, “Pyridine derivatives as cb2 receptor modulators” (priority 2002, published 2007)
Where two headings read alike, the source gives them in different places.

Molecular target: T1, human cannabinoid CB2 receptor (Homo sapiens, UniProt P34972)
T1 construct: expressed in transfected cells; host or cells: Saccharomyces cerevisiae strain MMY23 (cassette integrated at the ura3 locus, GPD promoter)
Test: Cannabinoid CB2 receptor agonist activity in yeast (Saccharomyces cerevisiae) cells expressing the receptor, FDGlu fluorescence readout;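 as to Emax: percent of the maximal response of the reference agonist HU210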
Format: cell-based
Details: for Emax: read-out: efficacy (Emax) at the cloned human cannabinoid CB2 receptor
Protocol: Determination of Cannabinoid CB2 Receptor Agonist Activity
The cannabinoid CB2 receptor agonist activity of the compounds of formula (I) was determined in accordance with the following experimental method.
Yeast (Saccharomyces cerevisiae) cells expressing the human cannabinoid CB2 receptor were generated by integration of an expression cassette into the ura3 chromosomal locus of yeast strain MMY23. This cassette consisted of DNA sequence encoding the human CB2 receptor flanked by the yeast GPD promoter to the 5′ end of CB2 and a yeast transcriptional terminator sequence to the 3′ end of CB2. MMY23 expresses a yeast/mammalian chimeric G-protein alpha subunit in which the C-terminal 5 amino acids of Gpa1 are replaced with the C-terminal 5 amino acids of human Gαi3 (as described in Brown et aL (2000), Yeast 16:11-22). Cells were grown at 30° C. in liquid Synthetic Complete (SC) yeast media (Guthrie and Fink (1991), Methods in Enzymology, Vol. 194) lacking uracil, tryptophan, adenine and leucine to late logarithmic phase (approximately 6 OD600/ml).
Agonists were prepared as 10 mM stocks in DMSO. […] Agonist solutions in DMSO (1% final assay volume) were transferred into black, clear bottom, microtitre plates from NUNC (96- or 384-well). […] This mixture (50 ul per well for 384-well plates, 200 ul per well for 96-well plates) was added to agonist in the assay plates (Multidrop 384, Labsystems). After incubation at 30° C. for 24 hours, fluorescence resulting from degradation of FDGlu to fluorescein due to exoglucanase, an endogenous yeast enzyme produced during agonist-stimulated cell growth, was determined using a Spectrofluor microtitre plate reader (Tecan; excitation wavelength: 485 nm; emission wavelength: 535 nm). Fluorescence was plotted against compound concentration and iteratively curve fitted using a four parameter fit to generate a concentration effect value. […] Equieffective molar ratio (EMR) values were calculated from the equation EMR=EC50 [compound X]/EC50 [HU210]
Where EC50 [compound X] is the EC50 of compound X and EC50 [HU210] is the EC50 of HU210.

[1] = agonist activity, yeast cells, 24 hours at 30° C., read-out: EC50 at the cloned human cannabinoid CB2 receptor

T1 sequence (P34972 whole entry): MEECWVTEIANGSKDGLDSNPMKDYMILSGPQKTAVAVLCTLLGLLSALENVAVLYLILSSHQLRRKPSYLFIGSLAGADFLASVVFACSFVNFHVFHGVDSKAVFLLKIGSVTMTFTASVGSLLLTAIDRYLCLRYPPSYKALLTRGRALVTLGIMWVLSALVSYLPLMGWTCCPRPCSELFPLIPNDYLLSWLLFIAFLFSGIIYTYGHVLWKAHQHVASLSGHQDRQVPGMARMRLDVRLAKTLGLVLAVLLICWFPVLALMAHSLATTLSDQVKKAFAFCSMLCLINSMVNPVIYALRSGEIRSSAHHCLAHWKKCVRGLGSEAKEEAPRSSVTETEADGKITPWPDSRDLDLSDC

| Compound | EC50 [nM] | Emax [%] | EC50 [1] [nM] |
| --- | --- | --- | --- |
| O=C(NCc1ccnc(F)c1)c1cnc(Nc2cc(Cl)cc(Cl)c2)cc1C(F)(F)F [Example 54, N-(2-Fluoro-pyridin-4-ylmethyl)-6-(3,5-dichloro-phenylamino)-4-trifluoromethyl-nicotinamide] | < 300 | > 50 | – |
| O=C(NCc1ccc(F)cc1)c1cnc(Nc2ccc(Cl)c(Cl)c2)cc1C(F)(F)F [Example 55, N-(4-Fluoro-benzyl)-6-(3,4-dichloro-phenylamino)-4-trifluoroinethyl-nicotinainide] | < 300 | > 50 | – |
| Cc1ccc(Cl)cc1Nc1cc(C(F)(F)F)c(C(=O)NCc2ccncc2)cn1 [Example 57, N-(Pyridin-4-ylmethyl)-6-(2-methyl-5-chloro-phenylamino)-4-trifluoromethyl-nicotinamide] | < 300 | > 50 | – |
| Cc1cc(Cl)ccc1Nc1cc(C(F)(F)F)c(C(=O)NCc2ccncc2)cn1 [Example 58, N-(Pyridin-4-ylmethyl)-6-(2-methyl-4-chloro-phenylamino)-4-trifluoromethyl-nicotinamide] | < 300 | > 50 | – |
| CC(C)c1cc(Nc2ccc(Cl)cc2Br)ncc1C(=O)NCc1ccc(F)cc1 [Example 70, 6-(2-Bromo-4-chloro-phenylamino)-N-(4-fluoro-benzyl)-4-isopropyl-nicotinamide] | < 300 | > 50 | – |
| CC(C)c1cc(Nc2ccc(F)cc2Cl)ncc1C(=O)NCc1ccc(F)cc1 [Example 71, 6-(2-Chloro-4-fluoro-phenylamino)-N-(4-fluoro-benzyl)-4-isopropyl-nicotinamide] | < 300 | > 50 | – |
| CC(C)c1cc(Nc2cc(Cl)ccc2F)ncc1C(=O)NCc1ccc(F)cc1 [Example 72, 6-(5-Chloro-2-fluoro-phenylamino)-N-(4-fluoro-benzyl)-4-isopropyl-nicotinamide] | – | – | < 300 |
| Cc1cc(C#N)ccc1Nc1cc(C(C)C)c(C(=O)NCc2ccc(F)cc2)cn1 [Example 73, 6-(4-Cyano-2-methyl-phenylamino)-N-(4-fluoro-benzyl)-4-isopropyl-nicotinamide] | – | – | < 300 |
| CC(C)c1cc(Nc2cc(Cl)ccc2Cl)ncc1C(=O)NCc1ccc(F)cc1 [Example 74, 6-(2,5-Dichloro-phenylamino)-N-(4-fiuoro-benzyl)-4-isopropyl-nicotinamide] | 300 to 1000 | > 50 | – |
| CC(C)c1cc(Nc2ccc(Br)c(Cl)c2)ncc1C(=O)NCc1ccc(F)cc1 [Example 75, 6-(4-Bromo-3-chloro-phenylamino)-N-(4-fluoro-benzyl)-4-isopropyl-nicotinamide] | 300 to 1000 | > 50 | – |
| CC(C)c1cc(Nc2ccc(C(F)(F)F)c(F)c2)ncc1C(=O)NCc1ccc(F)cc1 [Example 76, N-(4-fluoro-benzyl)-6-(3-Fluoro-4-trifluormethyl-phenylamino)-4-isopropyl-nicotinamide] | – | – | 300 to 1000 |
| O=C(NCc1ccncc1)c1ccc(Nc2cccc(Cl)c2)nc1C(F)(F)F [Example 78, 6-(3-Chloro-phenylamino)-N-(pyridin-4-ylmethyl)-2-trifluoromethyl-nicotinamide] | < 300 | > 50 | – |
